Data published in patent US12239627B2, “Method of treating conditions related to the PGI2 receptor” (Arena Pharmaceuticals, Inc., priority 2014, dated 2025).

Assay: Phase 1 multiple ascending dose, dose titration study with healthy subjects (adverse events, tolerated dose)
Type: in vivo, human
Details: for Adverse Events (no. of subjects) leading to Decrease of Dose: Abdominal pain / Adverse Events (no. of subjects) leading to Decrease of Dose: Arthralgia / Adverse Events (no. of subjects) leading to Decrease of Dose: Chest discomfort / Adverse Events (no. of subjects) leading to Decrease of Dose: Chest pain / Adverse Events (no. of subjects) leading to Decrease of Dose: Diarrhoea / Adverse Events (no. of subjects) leading to Decrease of Dose: Dizziness / Adverse Events (no. of subjects) leading to Decrease of Dose: Headache / Adverse Events (no. of subjects) leading to Decrease of Dose: Jaw pain / Adverse Events (no. of subjects) leading to Decrease of Dose: Myalgia / Adverse Events (no. of subjects) leading to Decrease of Dose: Nausea / Adverse Events (no. of subjects) leading to Decrease of Dose: Palpitations / Adverse Events (no. of subjects) leading to Decrease of Dose: Priapism / Adverse Events (no. of subjects) leading to Decrease of Dose: Vomiting: Cohort 3, twice daily
Description: This study was a phase 1, randomized, double-blind, placebo-controlled, multiple-dose, dose titration study. A titration interval of 6 days was employed, with each dose being administered for at least 5 days. One goal was to determine the effect of dose titration on adverse effects.
In each of two subject cohorts, Cohort 1 and Cohort 2, subjects were treated at each dose level for duration of 5 days with exception of the last dose level which included 7 days of treatment.
The protocol was amended to provide for an additional cohort, Cohort 3, in order to evaluate a different dose escalation regimen, as disclosed below.
Cohorts 1 and 2: Two groups of 15 subjects were enrolled and randomized to receive placebo (5 subjects per Cohort) or a starting dose of 0.05 mg Compound 1 (10 subjects per Cohort) on Day I. Once daily (q.d.) dosing continued through 5 days. If tolerated, the next dose escalation (placebo or 0.1 mg q.d. Compound 1) occurred on Day 6 and this dose was administered daily through Day 10.
Subsequent dose escalations were to occur in the same manner every 6th day for up to 3 additional dose escalations if tolerated (placebo or 0.2, 0.3, and 0.4 mg Compound 1) with the final dose maintained for a duration of 7 days. The dose could be decreased (“de-escalated”) or increased (“re-escalated”) based on assessment of safety and tolerability.
Cohort 3: One group of 25 subjects (S placebo and 20 active) were enrolled and randomized to receive a starting dose of 0.01 mg Compound 1 twice daily or placebo on Day 1. Twice daily dosing continued through 5 days. If tolerated, the next dose escalation (placebo or Compound 1 0.02 mg twice daily) occurred on Day 6 and this dose was administered daily through Day 10. Subsequent dose escalations were to occur in the same manner every 6th day for up to 4 additional dose escalations if tolerated (placebo or 0.03, 0.04. 0.05, and 0.07 mg twice daily Compound 1). The dose could be decreased (“de-escalated”) or increased (“re-escalated”) based on assessment of safety and tolerability. The doses tested in this cohort were 0.01, 0.02, 0.03, 0.04, 0.05, and 0.07 mg administered twice daily for a total daily dose of 0.02, 0.04, 0.06, 0.08, 0.1, and 0.14 mg, respectively.
Compound 1 capsules were provided as 0.01 mg (all Cohorts) and 0.1 mg (Cohorts 1 and 2 only) strengths.

## O=C(O)COC[C@H]1CC[C@H](COC(=O)N(c2ccccc2)c2ccc(Cl)cc2)CC1 [Compound 1, 2-(((1r,4r)-4-(((4-chlorophenyl)(phenyl)carbamoyloxy)methyl)cyclohexyl)methoxy)acetic acid]
Cohort 3
  Subjects who received 0.04 mg as highest dose for at least 3 days: 0.04 mg-20 subjects
  Subjects who received 0.06 mg as highest dose for at least 3 days: 0.06 mg-19 subjects
  Subjects who received 0.08 mg as highest dose for at least 3 days: 0.08 mg-11 subjects
  Subjects who received 0.10 mg as highest dose for at least 3 days: 0.10 mg-8 subjects
  Subjects who received 0.14 mg as highest dose for at least 3 days: 0.14 mg-3 subjects
  Subjects with Final Compound 1 Total Daily Dose of 0.04 mg: 0.04 mg-4 subjects
  Subjects with Final Compound 1 Total Daily Dose of 0.06 mg: 0.06 mg-6 subjects
  Subjects with Final Compound 1 Total Daily Dose of 0.08 mg: 0.08 mg-2 subjects
  Subjects with Final Compound 1 Total Daily Dose of 0.10 mg: 0.10 mg-6 subjects
  Subjects with Final Compound 1 Total Daily Dose of 0.14 mg: 0.14 mg-2 subjects
0.01 mg (N = 20)
  Adverse Events (no. of subjects) leading to Decrease of Dose: Abdominal pain: 0 subjects
  Adverse Events (no. of subjects) leading to Decrease of Dose: Arthralgia: 0 subjects
  Adverse Events (no. of subjects) leading to Decrease of Dose: Chest discomfort: 0 subjects
  Adverse Events (no. of subjects) leading to Decrease of Dose: Chest pain: 0 subjects
  Adverse Events (no. of subjects) leading to Decrease of Dose: Diarrhoea: 0 subjects
  Adverse Events (no. of subjects) leading to Decrease of Dose: Dizziness: 0 subjects
  Adverse Events (no. of subjects) leading to Decrease of Dose: Headache: 1 subjects
  Adverse Events (no. of subjects) leading to Decrease of Dose: Jaw pain: 0 subjects
  Adverse Events (no. of subjects) leading to Decrease of Dose: Myalgia: 1 subjects
  Adverse Events (no. of subjects) leading to Decrease of Dose: Nausea: 0 subjects
  Adverse Events (no. of subjects) leading to Decrease of Dose: Palpitations: 0 subjects
  Adverse Events (no. of subjects) leading to Decrease of Dose: Priapism: 0 subjects
  Adverse Events (no. of subjects) leading to Decrease of Dose: Vomiting: 0 subjects
0.02 mg (N = 20)
  Adverse Events (no. of subjects) leading to Decrease of Dose: Abdominal pain: 0 subjects
  Adverse Events (no. of subjects) leading to Decrease of Dose: Arthralgia: 1 subjects
  Adverse Events (no. of subjects) leading to Decrease of Dose: Chest discomfort: 0 subjects
  Adverse Events (no. of subjects) leading to Decrease of Dose: Chest pain: 1 subjects
  Adverse Events (no. of subjects) leading to Decrease of Dose: Diarrhoea: 1 subjects
  Adverse Events (no. of subjects) leading to Decrease of Dose: Dizziness: 0 subjects
  Adverse Events (no. of subjects) leading to Decrease of Dose: Headache: 6 subjects
  Adverse Events (no. of subjects) leading to Decrease of Dose: Jaw pain: 0 subjects
  Adverse Events (no. of subjects) leading to Decrease of Dose: Myalgia: 2 subjects
  Adverse Events (no. of subjects) leading to Decrease of Dose: Nausea: 3 subjects
  Adverse Events (no. of subjects) leading to Decrease of Dose: Palpitations: 1 subjects
  Adverse Events (no. of subjects) leading to Decrease of Dose: Priapism: 0 subjects
  Adverse Events (no. of subjects) leading to Decrease of Dose: Vomiting: 1 subjects
0.03 mg (N = 20)
  Adverse Events (no. of subjects) leading to Decrease of Dose: Abdominal pain: 1 subjects
  Adverse Events (no. of subjects) leading to Decrease of Dose: Arthralgia: 0 subjects
  Adverse Events (no. of subjects) leading to Decrease of Dose: Chest discomfort: 1 subjects
  Adverse Events (no. of subjects) leading to Decrease of Dose: Chest pain: 0 subjects
  Adverse Events (no. of subjects) leading to Decrease of Dose: Diarrhoea: 1 subjects
  Adverse Events (no. of subjects) leading to Decrease of Dose: Dizziness: 0 subjects
  Adverse Events (no. of subjects) leading to Decrease of Dose: Headache: 1 subjects
  Adverse Events (no. of subjects) leading to Decrease of Dose: Jaw pain: 0 subjects
  Adverse Events (no. of subjects) leading to Decrease of Dose: Myalgia: 1 subjects
  Adverse Events (no. of subjects) leading to Decrease of Dose: Nausea: 1 subjects
  Adverse Events (no. of subjects) leading to Decrease of Dose: Palpitations: 0 subjects
  Adverse Events (no. of subjects) leading to Decrease of Dose: Priapism: 1 subjects
  Adverse Events (no. of subjects) leading to Decrease of Dose: Vomiting: 0 subjects
0.04 mg (N = 12)
  Adverse Events (no. of subjects) leading to Decrease of Dose: Abdominal pain: 0 subjects
  Adverse Events (no. of subjects) leading to Decrease of Dose: Arthralgia: 0 subjects
  Adverse Events (no. of subjects) leading to Decrease of Dose: Chest discomfort: 0 subjects
  Adverse Events (no. of subjects) leading to Decrease of Dose: Chest pain: 0 subjects
  Adverse Events (no. of subjects) leading to Decrease of Dose: Diarrhoea: 0 subjects
  Adverse Events (no. of subjects) leading to Decrease of Dose: Dizziness: 2 subjects
  Adverse Events (no. of subjects) leading to Decrease of Dose: Headache: 1 subjects
  Adverse Events (no. of subjects) leading to Decrease of Dose: Jaw pain: 0 subjects
  Adverse Events (no. of subjects) leading to Decrease of Dose: Myalgia: 0 subjects
  Adverse Events (no. of subjects) leading to Decrease of Dose: Nausea: 0 subjects
  Adverse Events (no. of subjects) leading to Decrease of Dose: Palpitations: 0 subjects
  Adverse Events (no. of subjects) leading to Decrease of Dose: Priapism: 0 subjects
  Adverse Events (no. of subjects) leading to Decrease of Dose: Vomiting: 0 subjects
0.05 mg (N = 8)
  Adverse Events (no. of subjects) leading to Decrease of Dose: Abdominal pain: 1 subjects
  Adverse Events (no. of subjects) leading to Decrease of Dose: Arthralgia: 0 subjects
  Adverse Events (no. of subjects) leading to Decrease of Dose: Chest discomfort: 0 subjects
  Adverse Events (no. of subjects) leading to Decrease of Dose: Chest pain: 0 subjects
  Adverse Events (no. of subjects) leading to Decrease of Dose: Diarrhoea: 0 subjects
  Adverse Events (no. of subjects) leading to Decrease of Dose: Dizziness: 1 subjects
  Adverse Events (no. of subjects) leading to Decrease of Dose: Headache: 0 subjects
  Adverse Events (no. of subjects) leading to Decrease of Dose: Jaw pain: 0 subjects
  Adverse Events (no. of subjects) leading to Decrease of Dose: Myalgia: 0 subjects
  Adverse Events (no. of subjects) leading to Decrease of Dose: Nausea: 0 subjects
  Adverse Events (no. of subjects) leading to Decrease of Dose: Palpitations: 0 subjects
  Adverse Events (no. of subjects) leading to Decrease of Dose: Priapism: 0 subjects
  Adverse Events (no. of subjects) leading to Decrease of Dose: Vomiting: 0 subjects
0.07 mg (N = 4)
  Adverse Events (no. of subjects) leading to Decrease of Dose: Abdominal pain: 0 subjects
  Adverse Events (no. of subjects) leading to Decrease of Dose: Arthralgia: 1 subjects
  Adverse Events (no. of subjects) leading to Decrease of Dose: Chest discomfort: 0 subjects
  Adverse Events (no. of subjects) leading to Decrease of Dose: Chest pain: 0 subjects
  Adverse Events (no. of subjects) leading to Decrease of Dose: Diarrhoea: 0 subjects
  Adverse Events (no. of subjects) leading to Decrease of Dose: Dizziness: 0 subjects
  Adverse Events (no. of subjects) leading to Decrease of Dose: Headache: 1 subjects
  Adverse Events (no. of subjects) leading to Decrease of Dose: Jaw pain: 1 subjects
  Adverse Events (no. of subjects) leading to Decrease of Dose: Myalgia: 0 subjects
  Adverse Events (no. of subjects) leading to Decrease of Dose: Nausea: 1 subjects
  Adverse Events (no. of subjects) leading to Decrease of Dose: Palpitations: 0 subjects
